For one assay, the target named is T1, RORγ-LBD (RORγt) (Homo sapiens, UniProt P51449).
T1 construct: the 6-His-(GST) RORγ-LBD was used which expressed and purified from baculovirus infected Sf-21 insect cells; made in house; host or cells: baculovirus-infected Sf-21 insect cells
T1 sequence (P51449 269-508 limits assumed): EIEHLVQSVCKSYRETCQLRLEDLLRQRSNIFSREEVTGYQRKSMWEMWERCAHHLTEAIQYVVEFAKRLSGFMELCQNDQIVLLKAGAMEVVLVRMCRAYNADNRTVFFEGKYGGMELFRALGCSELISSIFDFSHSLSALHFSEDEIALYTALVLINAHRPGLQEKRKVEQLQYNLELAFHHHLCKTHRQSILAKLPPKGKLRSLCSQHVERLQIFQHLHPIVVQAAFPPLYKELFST
Kind of assay: TR-FRET RORγt Binding Assay. To be noted: 6-His(GST)RORγ-LBD, SRC1_2 peptide, read-out: RORγt Binding. How it is done: TR-FRET RORγt Binding Assay: RORγ-LBD contains a 6-His and GST tag peptide from SRC1-2 an aminoterminal biotinyl-[…] was employed and the 6-His-(GST) RORγ-LBD was used which expressed and purified from baculovirus infected Sf-21 insect cells from Invitrogen and purified using glutathione sepharose. […] The peptide binding due to dose-curves of compounds was added the 0.1% DMSO. Fluorescence at wavelength 340 nm was read in each well of […] using an Envision fluorescence reader in Time Resolved mode after overnight incubation at 4° C.

The next assay has as its target T2, RORγt (Homo sapiens, UniProt P51449).
T2 construct: host or cells: IL-17A Prom/LUCPorter HEK 293 cell line (IMGENEX, IML-301)
T2 sequence (P51449 1-497 isoform P51449-2): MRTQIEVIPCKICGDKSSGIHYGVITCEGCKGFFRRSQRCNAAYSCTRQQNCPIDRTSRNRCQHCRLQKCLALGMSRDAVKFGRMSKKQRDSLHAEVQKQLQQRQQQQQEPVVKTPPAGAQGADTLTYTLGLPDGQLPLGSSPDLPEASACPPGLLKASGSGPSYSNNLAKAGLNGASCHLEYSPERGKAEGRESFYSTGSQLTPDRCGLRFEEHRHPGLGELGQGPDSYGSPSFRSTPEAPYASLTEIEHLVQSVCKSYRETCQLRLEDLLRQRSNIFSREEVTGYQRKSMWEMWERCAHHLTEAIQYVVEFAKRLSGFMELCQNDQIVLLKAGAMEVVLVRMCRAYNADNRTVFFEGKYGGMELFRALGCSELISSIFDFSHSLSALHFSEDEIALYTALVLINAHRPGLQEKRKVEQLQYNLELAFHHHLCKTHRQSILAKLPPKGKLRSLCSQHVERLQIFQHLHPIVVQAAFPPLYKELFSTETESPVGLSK
Kind of assay: RORγt-activated IL-17A Prom/LUCPorter HEK 293 cells luciferase reporter assay. The assay is classed as cell-based. The note with it: IL-17A Prom/LUCPorter HEK 293 cells transfected with RORγt, 16 h; read-out: RORγt Cell Specific. How it is done: Antagonistic (or inverse agonistic) effects of the test compounds on the RORγt-activated IL-17A Prom/LUCPorter™ HEK 293 cells were analyzed and IC50 of each compound was evaluated. […] Luciferase activity was analyzed using the luciferase reporter assay reagent (IMGENEX, LS100). The data were analyzed using Excel and Prism software. Percent activity was defined as 100×(1−(Well−Control A)/(Control B−Control A)), where Control A was the wells containing cells transfected with RORγt and Control B was the wells containing non-transfected cells. Both Controls A and B were treated with vehicle alone.
In general terms: In a reporter assay the amount or activity of a reporter protein is the signal.

In assay [1] the test system is IL-17 release from CD4+ T cells. Kind of assay: Cytokine IL-17 estimation by HTRF, IL-17 release from CD4+ T cells. Format: cell-based. The note with it: Homo sapiens, IL-17 release from CD4+ T cells, HTRF, read-out: IL-17 Inhibition. An excerpt: The assay was designed to assess the potency of test compounds on IL-17 cytokine release from CD4+ T cells. In order to aid in the identification of potent inhibitors, the IC50's determined for the test compounds IL-17 release from CD4+ T cells through the generation of 10 point Dose Response Curves (DRC). Assay methods used to quantify IL-17 secretion is HTRF (Homogenous Time Resolved Fluorescence). IL-17 secreted is detected by anti-IL-17 MAb labeled with XL665, the second MAb labeled with Cryptate, which binds to specific epitopes of human IL-17. Upon close proximity of both acceptor and donor energy transfer (FRET) occurs. This technique has been further enhanced by using long-lived labels combined with the detection on a time-resolved fluorescence basis, allowing […] of prompt fluorescence interferences.
The assay was performed according to manufacturer's instruction. All the reagents were reconstituted according to instructions provided. The reagents were dispensed into a half area 96-well plate in the following order: […] or sample, IL-17 MAbXL665 and 5 μL IL-17 Cryptate. For the negative control, the standard or sample is replaced by […]. The plate is covered with a plate sealer and incubated at rt for 2 h. Following incubation, the plate sealer is removed and the plate is read using HTRF protocol on Envision Microplate reader. All of the data analysis was carried out using Microsoft Excel (2010) and IC50 was determined using GraphPad Prism 4 software. % Inhibition of the test compounds were determined utilizing the following formula: % Inhibition=100−(100*(Average Test Compound Counts−Average Negative Control Counts)/(Average Positive Control Counts−Average Negative Control Counts)).
We have established robust in vitro cell-based HTRF assay for the activation and stimulation of CD4+ T lymphocytes to T helper 17 (Th17) cell differentiation and IL-17 production.

Some results are limits rather than exact numbers.

For the compound `COc1cc2c(cc1NC1CCN(C)CC1)CC(Cc1ccc(SC(F)(F)F)cc1)C2=O` (stereo not drawn) [compound 144], the IC50 (on RORγ-LBD (RORγt); on RORγt; in assay [1]) was greater than 1000 nM each time.
As to `COc1cc2c(cc1NC1CCN(C)CC1)CC(Cc1ncccc1C(F)(F)F)C2=O` (stereo not drawn) [compound 146], the IC50 is greater than 1000 nM at RORγ-LBD (RORγt), greater than 1000 nM on RORγt and less than 500 nM in assay [1].
Consider `COc1cc2c(cc1N1CCC(F)CC1)CC(Cc1ccc(SC(F)(F)F)cc1)C2=O` (stereo not drawn) [compound 149, 5-(4-fluoropiperidin-1-yl)-6-methoxy-2-(4-((trifluoromethyl)thio)benzyl)-2,3-dihydro-1H-inden-1-one], for which the IC50 is less than 500 nM at RORγ-LBD (RORγt), greater than 10000 nM at RORγt and greater than 1000 nM in assay [1].
Consider `COc1cc2c(cc1N1CCC(F)CC1)CC(Cc1ncccc1C(F)(F)F)C2=O` (stereo not drawn) [compound 151, 5-(4-fluoropiperidin-1-yl)-6-methoxy-2-((3-(trifluoromethyl)pyridin-2-yl)methyl)-2,3-dihydro-1H-inden-1-one], for which the IC50 (at RORγ-LBD (RORγt); on RORγt; in assay [1]) was greater than 1000 nM throughout.
In the case of `COc1cc2c(cc1N1CCC(C)CC1)CC(Cc1cccc(C(F)(F)F)c1)C2=O` (stereo not drawn) [compound 154], the IC50 at RORγ-LBD (RORγt) is greater than 1000 nM; at RORγt, greater than 1000 nM; in assay [1], less than 500 nM.
For `COc1cc2c(cc1N1CCOCC1)CC(Cc1cc(C(F)(F)F)ccc1Cl)C2=O` (stereo not drawn) [compound 158], the IC50 at RORγ-LBD (RORγt) is less than 500 nM; on RORγt it was greater than 1000 nM; in assay [1], less than 500 nM.
Turning to `COc1cc2c(cc1N1CCN(C)CC1)CC(Cc1cc(C(F)(F)F)ccc1Cl)C2=O` (stereo not drawn) [compound 161, 2-(2-chloro-5-(trifluoromethyl)benzyl)-6-methoxy-5-(4-methylpiperazin-1-yl)-2,3-dihydro-1H-inden-1-one], the IC50 on RORγ-LBD (RORγt) was greater than 1000 nM; on RORγt, less than 500 nM; in assay [1], greater than 1000 nM.
On to `COc1cc2c(cc1N1CCNCC1)CC(Cc1ncccc1C(F)(F)F)C2=O` (stereo not drawn) [compound 164], for which the figures for the IC50 (at RORγ-LBD (RORγt); on RORγt; in assay [1]) were less than 500 nM, greater than 1000 nM and less than 500 nM, respectively.
For the compound `COc1ccc2c(c1OC)CC(Cc1ccc(SC(F)(F)F)cc1)C2=O` (stereo not drawn) [compound 167], the IC50 at RORγ-LBD (RORγt) is greater than 1000 nM; on RORγt, greater than 1000 nM; in assay [1] it was less than 500 nM.
`COc1ccc2c(c1OC)CC(Cc1ncccc1C(F)(F)F)C2=O` (stereo not drawn) [compound 169]: the IC50 is greater than 1000 nM at RORγ-LBD (RORγt), greater than 1000 nM on RORγt and less than 500 nM in assay [1].
With `COc1cc2c(cc1Cl)CC(Cc1ccc(SC(F)(F)F)cc1)C2=O` (stereo not drawn) [compound 172], the IC50 is greater than 1000 nM at RORγ-LBD (RORγt), greater than 1000 nM at RORγt and less than 500 nM in assay [1].
`COc1cc2c(cc1Cl)CC(Cc1ncccc1C(F)(F)F)C2=O` (stereo not drawn) [compound 174]: the figures for the IC50 (at RORγ-LBD (RORγt); on RORγt; in assay [1]) were greater than 1000 nM, greater than 1000 nM and less than 500 nM, respectively.
In the case of `COc1ccc2c(c1Cl)CC(Cc1ccc(SC(F)(F)F)cc1)C2=O` (stereo not drawn) [compound 177], the values for the IC50 (at RORγ-LBD (RORγt); at RORγt; in assay [1]) were less than 500 nM, greater than 1000 nM and less than 500 nM, respectively.
As for `COc1ccc2c(c1Cl)CC(Cc1ncccc1C(F)(F)F)C2=O` (stereo not drawn) [compound 179], the IC50 on RORγ-LBD (RORγt) was less than 500 nM; at RORγt, greater than 1000 nM; in assay [1], less than 500 nM.
As for `COc1ccc2c(c1)CC(Cc1ccc(SC(F)(F)F)cc1)C2=O` (stereo not drawn) [compound 182], the results for the IC50 (at RORγ-LBD (RORγt); at RORγt; in assay [1]) were greater than 1000 nM, greater than 1000 nM and less than 500 nM, respectively.
On to `COc1ccc2c(c1)CC(Cc1ncccc1C(F)(F)F)C2=O` (stereo not drawn) [compound 184], for which the values for the IC50 (on RORγ-LBD (RORγt); at RORγt; in assay [1]) were less than 500 nM, greater than 1000 nM and less than 500 nM, respectively.
As for `COc1cc2c(cc1O)C(=O)C(Cc1ccc(SC(F)(F)F)cc1)C2` (stereo not drawn) [compound 187], the IC50 on RORγ-LBD (RORγt) is greater than 1000 nM; at RORγt, greater than 1000 nM; in assay [1] it was less than 500 nM.
Regarding `CCS(=O)(=O)Oc1cc2c(cc1OC)CC(Cc1ccc(SC(F)(F)F)cc1)C2=O` (stereo not drawn) [compound 188], the IC50 on RORγ-LBD (RORγt) is less than 500 nM; on RORγt, greater than 1000 nM; in assay [1] it was less than 500 nM.
Consider `COc1cc2c(cc1O)C(=O)C(Cc1ncccc1C(F)(F)F)C2` (stereo not drawn) [compound 190], for which the IC50 on RORγ-LBD (RORγt) was less than 500 nM; at RORγt it was greater than 1000 nM; in assay [1], less than 500 nM.
Take `CCS(=O)(=O)Oc1cc2c(cc1OC)CC(Cc1ncccc1C(F)(F)F)C2=O` (stereo not drawn) [compound 191]: the IC50 (at RORγ-LBD (RORγt); on RORγt; in assay [1]) was less than 500 nM throughout.
With `O=C1c2ccc(O)cc2CC1Cc1ccc(SC(F)(F)F)cc1` (stereo not drawn) [compound 193], the IC50 (at RORγ-LBD (RORγt); at RORγt; in assay [1]) was less than 500 nM in each case.
`CCS(=O)(=O)Oc1ccc2c(c1)CC(Cc1ccc(SC(F)(F)F)cc1)C2=O` (stereo not drawn) [compound 194]: the IC50 (at RORγ-LBD (RORγt); on RORγt; in assay [1]) was less than 500 nM each time.
Take `COc1cc2c(cc1-c1ccccc1OC(F)(F)F)CC(Cc1ncccc1C(F)(F)F)C2=O` (stereo not drawn) [compound 213]: the IC50 on RORγ-LBD (RORγt) was less than 500 nM; on RORγt it was greater than 1000 nM; in assay [1], less than 500 nM.
With `COc1cc2c(cc1-c1ccc(OC(F)(F)F)cc1F)CC(Cc1ncccc1C(F)(F)F)C2=O` (stereo not drawn) [compound 216], the IC50 on RORγ-LBD (RORγt) was greater than 1000 nM; at RORγt, greater than 1000 nM; in assay [1], less than 500 nM.
In the case of `COc1cc2c(cc1N1CCOCC1)CC(Cc1cc(C(F)(F)F)cc(C(O)(C(F)(F)F)C(F)(F)F)c1)C2=O` (stereo not drawn) [compound 229, 2-(3-(1,1,1,3,3,3-hexafluoro-2-hydroxypropan-2-yl)-5-(trifluoromethyl)benzyl)-6-methoxy-5-morpholino-2,3-dihydro-1H-inden-1-one], the IC50 (at RORγ-LBD (RORγt); on RORγt; in assay [1]) was less than 500 nM throughout.
Regarding `COc1cc2c(cc1N1CCOCC1)CC(Cc1c(F)ccc(C(O)(C(F)(F)F)C(F)(F)F)c1F)C2=O` (stereo not drawn) [compound 232, 2-(2,6-difluoro-3-(1,1,1,3,3,3-hexafluoro-2-hydroxypropan-2-yl)benzyl)-6-methoxy-5-morpholino-2,3-dihydro-1H-inden-1-one], the IC50 (on RORγ-LBD (RORγt); at RORγt; in assay [1]) was less than 500 nM in each case.

The values are drawn from patent publication US9446047B2, “Substituted 2,3-dihydro-1H-inden-1-one retinoic acid-related orphan nuclear receptor antagonists for treating multiple sclerosis” (Arrien Pharmaceuticals LLC, priority 2013, dated 2016).
